{"source": "patent US20240115554A1", "about": "“METHODS FOR TREATING OBSTRUCTIVE HYPERTROPHIC CARDIOMYOPATHY” (Cytokinetics, Incorporated, priority 2022, published 2024)", "key": {"healthy adults": {"test_system": "healthy adults", "test": "Phase 1 echocardiography pharmacodynamics (LVEF)", "assay_type": "in vivo, human", "method": "Echocardiography. For PD assessments of LVEF, echocardiograms for the SAD and MAD cohorts were interpreted by the echocardiography core laboratory and used for all data analysis and dose level review decisions while immediate local interpretation of the echocardiograms was performed for safety monitoring. […] Echocardiograms on day 3 (48 h after dosing) were obtained only if the 24 h LVEF had not returned to near or above baseline, as determined by the investigator. In the MAD cohorts, echocardiograms were obtained on day −1, pre-dose on day 1, and at 1.5 h post dose on days 2, 4, and 9, and at 1.5, 24, and 72 h post dose on day 14 (for the 5-mg and 10-mg cohorts) or on day 17 (for the 7.5-mg cohort). Echocardiograms were obtained 3 days after the last dose (on day 17 or 20) only if the participant's prior LVEF was not near or above baseline, as determined by the investigator. […] Descriptive statistics of the echocardiographic parameters were generated using SAS® Version 9.3 or higher. Dose-response analysis was performed using analysis of covariance (ANCOVA) to identify the least-squares mean difference (aficamten minus placebo). To analyze the impact of drug dose on echocardiographic parameters in the SAD and MAD cohorts, an inferential analysis was conducted on the PD analysis set using linear mixed models for repeated-measures analysis of covariance (ANCOVA). The ANCOVA used baseline value as a covariate, included treatment, time-point, and time-point-by-treatment interaction as fixed effects, and change from baseline as the dependent variable. The unstructured variance-covariance structure was used, and the model accounted for the time-point repeated measures. The ANCOVA analysis was conducted separately for each study part and for each PD parameter. The least-squares means, the difference in least squares means (active minus placebo), and the associated 2-sided 95% CIs were presented for each comparison. Analyses of concentration ‘bin’ and exposure-response were also performed using ANCOVA. SAS® PROC MIXED was used for all comparative analyses. […] A concentration bin ANCOVA was conducted using linear mixed models for repeated-measures analyses with concentration bin group as a fixed effect, baseline PD parameters as a covariate, change from baseline as the dependent variable, and a random intercept to adjust for the repeated measures. The unstructured variance-covariance structure was used. […] The ANCOVA compared the change in PD parameters between each bin versus the pooled placebo group. The least-squares means, the difference in least squares means (bin group minus placebo), and the associated 2-sided 95% CIs were presented for each comparison. The ANCOVA analysis was conducted separately for each study part. For all time-points at which both PK data and PD measures were available, the time-points were pooled for the analysis. […] From least to greatest, the data were then divided into 5 groups of observations (‘bins’), each consisting of 20% of the data points. Each bin was treated as a separate group. […] The above analysis was then repeated using concentration as a continuous variable to estimate the exposure-response trend. Both a random intercept effect and a random concentration effect were added to the ANCOVA. The estimate of the concentration slope, with corresponding 2-sided 95% CIs, and the ANCOVA analyses were presented for each study part."}, "[1]": {"test_system": "patients with symptomatic oHCM", "test": "Open-label extension: echocardiography (LVOT-G, LVEF)", "assay_type": "in vivo, human", "method": "Patients were up-titrated to Dose 2 if either of the following conditions were met on echocardiography: (1) resting LVOT-G ≥30 mmHg and the biplane LVEF ≥50%; or (2) resting LVOT-G <30 mmHg, post-Valsalva LVOT-G ≥50 mmHg, and the biplane LVEF ≥50%. […] If LVEF was <50%, treatment was discontinued. If LVEF was <40%, treatment is interrupted.\nAmbulatory cardiac monitoring is performed on weeks 48, 96, 144, 192 and 240. Cardiac magnetic resonance is monitored at weeks 48, 144 and 240. (See FIG. 26).\nAt Week 2, each patient has a truncated echocardiogram following administration of their dose. Patients are up-titrated to Dose 2 if post-Valsalva LVOT-G ≥30 mmHg, and the biplane LVEF ≥55%. […] If LVEF is <50%, treatment is discontinued.\nAt Weeks 4, 6, 12, and every 12 weeks thereafter, each patient has an echocardiogram or truncated echocardiogram following administration of their dose (a truncated echocardiogram at weeks 4 and 6; and an echocardiogram at week 12 and every 12 weeks thereafter) to determine whether additional dose titration is needed (see Table 21 and Table 22). Patient reported outcomes, laboratory assessments, measurements of NT-proBNP, hs-cTnI, and other biomarkers are performed at week 12 and every 12 weeks thereafter. Ambulatory cardiac monitoring is performed on weeks 48, 96, 144, 192 and 240 Cardiac magnetic resonance is monitored at weeks 48, 144 and 240. If a patient develops an LVEF <40% after the Week 2 visit, a repeat echocardiogram may be performed to confirm the initial finding (preferably within 24 hours). If the echocardiography findings are confirmed, the patient will undergo a ≥2-day drug holiday.\nEchocardiographic parameters to be measured at least include the left ventricular parameters (resting left ventricular outflow tract pressure gradient (LVOT-G), post-Valsalva LVOT-G, LVEF, LVFS, left ventricular strain, left ventricular end diastolic volume (LVEDV), left ventricular end systolic volume (LVESV), LV Stroke Volume), septal and free wall thickness, E/e′, E/A, LA volume."}, "[2]": {"details": "SAD 50 mg (n = 11), change from baseline at […]"}}, "note": "Values joined by “and” are separate entries in the source; they are usually repeats but may differ in a detail not shown here. Equal values may be shown once."}
{"smiles": "CCc1nc(-c2ccc3c(c2)CC[C@H]3NC(=O)c2cnn(C)c2)no1", "note": "[aficamten, (R)—N-(5-(5-ethyl-1,2,4-oxadiazol-3-yl)-2,3-dihydro-1H-inden-1-yl)-1-methyl-1H-pyrazole-4-carboxamide]", "values": [{"measurement": "plasma aficamten concentration with minimal suppression of LVEF in most participants", "setting": "healthy adults; MAD cohorts", "result": "< 180", "unit": "ng/mL"}, {"measurement": "time within which LVEF returned to baseline in participants whose LVEF fell below 50%", "setting": "healthy adults; Phase 1", "result": "≤ 24", "unit": "h"}, {"measurement": "E, Mean", "setting": "healthy adults; SAD 50 mg (n = 11), […]", "result": 64, "unit": "cm/s"}, {"measurement": "A, CFB Mean", "setting": "healthy adults; [2]", "result": 2.5, "unit": "cm/s"}, {"measurement": "E, CFB Mean", "setting": "healthy adults; [2]", "result": -2.7, "unit": "cm/s"}, {"measurement": "Heart rate, CFB Mean", "setting": "healthy adults; [2]", "result": 0.5, "unit": "bpm"}, {"measurement": "IVCT, CFB Mean", "setting": "healthy adults; [2]", "result": 0.4, "unit": "ms"}, {"measurement": "IVRT, CFB Mean", "setting": "healthy adults; [2]", "result": 0.5, "unit": "ms"}, {"measurement": "LAV, CFB Mean", "setting": "healthy adults; [2]", "result": 0, "unit": "mL"}, {"measurement": "LV EDV, CFB Mean", "setting": "healthy adults; [2]", "result": 6.6, "unit": "mL"}, {"measurement": "LV ESV, CFB Mean", "setting": "healthy adults; [2]", "result": 8.1, "unit": "mL"}, {"measurement": "LV ET, CFB Mean", "setting": "healthy adults; [2]", "result": 1.9, "unit": "ms"}, {"measurement": "LV SV, CFB Mean", "setting": "healthy adults; [2]", "result": -6.2, "unit": "mL"}, {"measurement": "LVEF, CFB Mean", "setting": "healthy adults; [2]", "result": "−5.8", "unit": "%"}, {"measurement": "e′ lateral, CFB Mean", "setting": "healthy adults; [2]", "result": -1.3, "unit": "cm/s"}, {"measurement": "participants with absolute reduction in LVEF of ≥5% from baseline", "setting": "healthy adults; SAD 1-, 10-, or 25-mg cohorts", "result": "no participants"}, {"measurement": "participants with reduction in LVEF to <50%", "setting": "healthy adults; SAD 50-mg cohort (2 of 11)", "result": 18, "unit": "%"}, {"measurement": "LVEF of the participants with LVEF <50%", "setting": "healthy adults; SAD 50-mg cohort, 2 participants, core laboratory assessment", "result": "48.2% and 45.5%"}, {"measurement": "mean maximum reduction in LVEF", "setting": "healthy adults; SAD 50-mg group, […] post dose", "result": 5.8, "unit": "%"}, {"measurement": "participants with reduction in LVEF to <50%", "setting": "healthy adults; SAD 75-mg cohort (1 of 1)", "result": 100, "unit": "%"}, {"measurement": "relationship of plasma concentration to change in LVEF", "setting": "healthy adults; SAD cohorts", "result": "trend toward a decrease in LVEF"}, {"measurement": "participants with LVEF <45%", "setting": "healthy adults; SAD cohorts, core laboratory", "result": "Only the participant in the 75-mg cohort experienced LVEF <45%"}, {"measurement": "reduction in LVEF to <50%", "setting": "healthy adults; any of the MAD cohorts, core laboratory assessment", "result": "not observed"}, {"measurement": "decrease in mean LVEF from baseline (least-squares mean difference)", "setting": "healthy adults; single 50-mg dose, […] post dose", "result": 5.5, "unit": "%"}, {"measurement": "LVEF after reduction", "setting": "healthy adults; single dose of 75 mg, 1 participant, approximately […] after dosing", "result": 34.1, "unit": "%"}, {"measurement": "reduction in LVEF", "setting": "healthy adults; single participant, 75 mg, […] post dose", "result": 31.5, "unit": "%"}, {"measurement": "reduction in LVOT gradients over time", "setting": "[1]; Weeks 2-24, site reads, Example 3a", "result": "significant and sustained reductions in LVOT gradients"}, {"measurement": "Δ LVEF", "setting": "[1]; baseline to week 48", "result": "−5±3", "unit": "%"}, {"measurement": "Δ Valsalva LVOT-G mean", "setting": "[1]; baseline to week 48", "result": "−47", "unit": "mmHg"}, {"measurement": "ΔResting LVOT-G mean", "setting": "[1]; baseline to week 48", "result": "−32", "unit": "mmHg"}, {"measurement": "reductions in LVEF over time", "setting": "[1]; through Week 24, Example 3a", "result": "minimal and stable reductions in LVEF"}]}
